Results: ChEMBL document CHEMBL1154393, “Neuroprotective and cholinergic properties of multifunctional glutamic acid derivatives for the treatment of Alzheimer's disease” (J Med Chem, 2009)

Assays:
Cholinesterase [1] = molecular target: Cholinesterase (Homo sapiens, UniProt P06276); assay: Inhibition of human BuChE in serum; assay type: cell-free
Acetylcholinesterase [2] = molecular target: T1, Acetylcholinesterase (Homo sapiens, UniProt P22303); assay: Displacement of propidium iodide from AChE peripheral anionic site at 0.3 uM
Acetylcholinesterase [3] = molecular target: T1, Acetylcholinesterase; assay: Displacement of propidium iodide from AChE peripheral anionic site at 1 uM
Acetylcholinesterase [4] = molecular target: T1, Acetylcholinesterase; assay: Displacement of propidium iodide from AChE peripheral anionic site at 3 uM
SH-SY5Y [5] = assay: Neuroprotective activity against human SH-SY5Y cells assessed as protection reduction in H2O2-induced LDH release at 1 uM after 24 hrs; assay type: functional; set-up: scale not given: the % may be the effect or the level left
SH-SY5Y [6] = assay: Neuroprotective activity against human SH-SY5Y cells assessed as protection reduction in H2O2-induced LDH release at 3 uM after 24 hrs; assay type: functional; set-up: scale not given: the % may be the effect or the level left
SH-SY5Y [7] = assay: Neuroprotective activity against human SH-SY5Y cells assessed as protection reduction in H2O2-induced LDH release at 10 uM after 24 hrs; assay type: functional; set-up: scale not given: the % may be the effect or the level left
SH-SY5Y [8] = assay: Neuroprotective activity against human SH-SY5Y cells assessed as protection reduction in H2O2-induced LDH release at 30 uM after 24 hrs; assay type: functional; set-up: scale not given: the % may be the effect or the level left
SH-SY5Y [9] = assay: Neuroprotective activity against H2O2-induced human SH-SY5Y cells assessed as cell viability at 30 uM after 24 hrs; assay type: functional; settings: read-out: Activity
Cholinesterase [10] = molecular target: Cholinesterase (Equus caballus, UniProt P81908)
Description: Inhibition of BuChE in horse serum by Ellman method

Acetylcholinesterase [11] = molecular target: T1, Acetylcholinesterase
Description: Inhibition of human AChE in erythrocyte

Acetylcholinesterase [12] = molecular target: T2, Acetylcholinesterase (Bos taurus, UniProt P23795)
T2 sequence (P23795 whole entry): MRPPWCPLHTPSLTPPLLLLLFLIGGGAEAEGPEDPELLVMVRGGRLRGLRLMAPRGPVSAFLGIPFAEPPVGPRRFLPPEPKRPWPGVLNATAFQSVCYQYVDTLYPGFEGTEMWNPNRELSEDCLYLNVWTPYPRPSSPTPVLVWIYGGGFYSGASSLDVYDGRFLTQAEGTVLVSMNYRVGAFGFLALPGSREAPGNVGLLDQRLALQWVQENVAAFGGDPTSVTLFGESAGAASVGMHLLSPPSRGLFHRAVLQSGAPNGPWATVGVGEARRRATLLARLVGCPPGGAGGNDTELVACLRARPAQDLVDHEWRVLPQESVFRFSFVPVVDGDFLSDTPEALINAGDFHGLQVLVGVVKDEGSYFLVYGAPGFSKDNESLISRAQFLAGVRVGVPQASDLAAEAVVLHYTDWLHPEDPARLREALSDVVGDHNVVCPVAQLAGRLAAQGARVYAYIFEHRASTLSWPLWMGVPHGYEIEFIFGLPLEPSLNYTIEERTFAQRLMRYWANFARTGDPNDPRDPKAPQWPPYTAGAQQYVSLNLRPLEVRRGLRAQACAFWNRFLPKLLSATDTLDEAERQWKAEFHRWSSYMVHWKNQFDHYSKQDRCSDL
Description: Inhibition of AChE in bovine erythrocyte by Ellman method

in vitro = settings: PAMPA
Description: Permeability across PAMPA membrane

SH-SY5Y [13] = assay: Neuroprotective activity against rotenone/oligomycin A-treated human SH-SY5Y cells assessed as cytoprotection at 0.3 uM pretreated 24 hrs before rotenone/oligomycin A challenge; assay type: functional
SH-SY5Y [14] = assay: Neuroprotective activity against rotenone/oligomycin A-treated human SH-SY5Y cells assessed as cytoprotection at 1 uM pretreated 24 hrs before rotenone/oligomycin A challenge; assay type: functional
SH-SY5Y [15] = assay: Neuroprotective activity against rotenone/oligomycin A-treated human SH-SY5Y cells assessed as cytoprotection at 3 uM pretreated 24 hrs before rotenone/oligomycin A challenge; assay type: functional
SH-SY5Y [16] = assay: Neuroprotective activity against human SH-SY5Y cells assessed as cytoprotection at 0.3 uM coincubated with rotenone/oligomycin A measured after 24 hrs; assay type: functional
SH-SY5Y [17] = assay: Neuroprotective activity against human SH-SY5Y cells assessed as cytoprotection at 1 uM coincubated with rotenone/oligomycin A measured after 24 hrs; assay type: functional
SH-SY5Y [18] = assay: Neuroprotective activity against human SH-SY5Y cells assessed as cytoprotection at 3 uM coincubated with rotenone/oligomycin A measured after 24 hrs; assay type: functional
SH-SY5Y [19] = assay: Neuroprotective activity against rotenone/oligomycin A-treated human SH-SY5Y cells assessed as cytoprotection at 0.1 uM pretreated 24 hrs before rotenone/oligomycin A challenge; assay type: functional
SH-SY5Y [20] = assay: Neuroprotective activity against human SH-SY5Y cells assessed as cytoprotection at 0.1 uM coincubated with rotenone/oligomycin A measured after 24 hrs; assay type: functional

Sequence of Cholinesterase (Equus caballus, UniProt P81908) (P81908 whole entry): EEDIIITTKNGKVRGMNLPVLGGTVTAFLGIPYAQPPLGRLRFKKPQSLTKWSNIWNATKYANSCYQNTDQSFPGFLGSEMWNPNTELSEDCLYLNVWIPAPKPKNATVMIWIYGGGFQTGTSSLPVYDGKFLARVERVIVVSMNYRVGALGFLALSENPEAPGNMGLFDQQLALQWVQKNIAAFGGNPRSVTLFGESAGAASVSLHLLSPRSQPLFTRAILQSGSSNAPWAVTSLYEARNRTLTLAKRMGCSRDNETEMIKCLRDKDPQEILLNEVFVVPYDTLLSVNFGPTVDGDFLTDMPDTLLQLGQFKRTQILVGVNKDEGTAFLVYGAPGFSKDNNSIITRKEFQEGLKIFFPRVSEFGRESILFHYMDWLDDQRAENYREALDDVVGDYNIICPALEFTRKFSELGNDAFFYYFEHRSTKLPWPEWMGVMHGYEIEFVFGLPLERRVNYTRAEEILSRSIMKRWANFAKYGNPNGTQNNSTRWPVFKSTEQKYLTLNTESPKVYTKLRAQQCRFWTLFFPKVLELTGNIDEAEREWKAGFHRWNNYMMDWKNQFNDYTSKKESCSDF
T1 sequence (P22303 whole entry): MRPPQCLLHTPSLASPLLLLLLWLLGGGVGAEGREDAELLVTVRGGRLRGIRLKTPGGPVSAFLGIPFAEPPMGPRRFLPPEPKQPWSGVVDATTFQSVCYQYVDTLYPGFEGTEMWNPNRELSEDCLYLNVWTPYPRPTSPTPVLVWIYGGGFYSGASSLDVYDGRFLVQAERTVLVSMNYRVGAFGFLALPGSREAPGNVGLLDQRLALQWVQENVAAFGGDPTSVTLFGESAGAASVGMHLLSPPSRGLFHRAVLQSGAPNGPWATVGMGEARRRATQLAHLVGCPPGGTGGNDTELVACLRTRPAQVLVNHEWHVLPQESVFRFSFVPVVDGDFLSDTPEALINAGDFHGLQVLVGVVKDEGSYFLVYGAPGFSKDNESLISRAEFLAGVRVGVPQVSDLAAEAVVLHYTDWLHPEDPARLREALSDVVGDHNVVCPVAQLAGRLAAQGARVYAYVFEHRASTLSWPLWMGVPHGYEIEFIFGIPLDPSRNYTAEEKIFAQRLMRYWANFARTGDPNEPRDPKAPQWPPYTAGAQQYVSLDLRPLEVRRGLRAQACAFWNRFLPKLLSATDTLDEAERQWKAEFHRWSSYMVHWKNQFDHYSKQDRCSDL
Sequence of Cholinesterase (Homo sapiens, UniProt P06276) (P06276 whole entry): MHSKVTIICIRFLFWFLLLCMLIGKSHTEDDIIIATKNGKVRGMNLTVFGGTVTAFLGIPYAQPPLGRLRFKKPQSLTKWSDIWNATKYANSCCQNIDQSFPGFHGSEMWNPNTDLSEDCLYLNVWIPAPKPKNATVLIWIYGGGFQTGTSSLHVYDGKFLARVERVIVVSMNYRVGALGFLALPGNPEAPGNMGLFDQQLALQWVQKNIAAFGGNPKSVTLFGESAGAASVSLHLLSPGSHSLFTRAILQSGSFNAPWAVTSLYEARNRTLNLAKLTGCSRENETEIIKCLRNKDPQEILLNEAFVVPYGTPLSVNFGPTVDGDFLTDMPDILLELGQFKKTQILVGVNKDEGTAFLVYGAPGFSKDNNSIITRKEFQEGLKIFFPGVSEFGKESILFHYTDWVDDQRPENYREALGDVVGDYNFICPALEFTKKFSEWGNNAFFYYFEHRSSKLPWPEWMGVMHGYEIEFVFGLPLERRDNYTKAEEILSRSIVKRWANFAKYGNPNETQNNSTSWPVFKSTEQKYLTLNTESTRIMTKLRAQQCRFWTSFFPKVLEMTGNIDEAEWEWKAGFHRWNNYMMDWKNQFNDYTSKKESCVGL

Compound | IC50 (Cholinesterase [1]) | Activity (Acetylcholinesterase [2]) | Activity (Acetylcholinesterase [3]) | Activity (Acetylcholinesterase [4]) | Activity (SH-SY5Y [5]) | Activity (SH-SY5Y [6]) | Activity (SH-SY5Y [7]) | Activity (SH-SY5Y [8]) | viability at 30 µM (SH-SY5Y [9]) | IC50 (Cholinesterase [10]) | IC50 (Acetylcholinesterase [11]) | IC50 (Acetylcholinesterase [12]) | Papp (in vitro) | Activity (SH-SY5Y [13]) | Activity (SH-SY5Y [14]) | Activity (SH-SY5Y [16]) | Activity (SH-SY5Y [17]) | other results
CCCCCCOC(=O)[C@H](CCC(=O)NCCC1CCN(Cc2ccccc2)CC1)NC(=O)c1cc2cccnc2s1 | 830 nM | 37.4% | 35.4% | 27.2% | 0% | 30.7% | 27.9% | 48.8% | 100% | 950 nM | 440 nM | 330 nM | 18.8 ×10⁻⁶ cm/s | – | – | – | – | –
C=CC[N+](C)(C)c1ccc(CCC(=O)CCc2ccc([N+](C)(C)CC=C)cc2)cc1 | – | – | – | 16% | – | – | – | – | – | – | – | – | – | – | – | – | – | –
CCCCCCOC(=O)[C@H](CCC(=O)NCCC1CCN(Cc2ccccc2)CC1)NC(=O)OC(C)(C)C | 3000 nM | 42.3% | 43.6% | 42% | 24.9% | 1.7% | 0% | 0% | 100% | 3500 nM | 950 nM | 5000 nM | 11.6 ×10⁻⁶ cm/s | – | – | – | – | –
CCCCCCOC(=O)[C@H](CCC(=O)NCCC1CCN(Cc2ccccc2)CC1)NC(=O)Cc1cc2ccc(Cl)cc2s1 | 70 nM | 14.7% | 16% | 23.4% | 26.2% | 32.5% | 0% | 0% | 100% | 50 nM | 100 nM | 2300 nM | – | – | – | – | – | –
CCCCCCOC(=O)[C@H](CCC(=O)NCCC1CCN(Cc2ccccc2)CC1)NC(=O)OCc1ccccc1 | 730 nM | 20.8% | 25% | 29.3% | 4.1% | 17.4% | 39.1% | 5.3% | 100% | 750 nM | 250 nM | 1400 nM | – | – | – | – | – | –
CCCCCCOC(=O)[C@H](CCC(=O)NCCC1CCN(Cc2ccccc2)CC1)NC(=O)c1cc2ccccc2s1 | 330 nM | 31.5% | 26.5% | 39.7% | 28.7% | 20.9% | 21.2% | 17.9% | 100% | 550 nM | 270 nM | 2500 nM | 25.6 ×10⁻⁶ cm/s | – | – | – | – | –
CCCCCCOC(=O)[C@H](CCC(=O)NCCC1CCN(Cc2ccccc2)CC1)NC(=O)c1cc(Br)cs1 | 850 nM | 11.3% | < 0.5% | < 0.5% | 63.3% | 84.3% | 66.7% | 66.7% | 100% | 750 nM | 180 nM | 1200 nM | – | 19% | 27.8% | 19.7% | 0% | Activity (SH-SY5Y [15]): 21.4%; Activity (SH-SY5Y [18]): 19.6%
Cc1c(C)c2c(c(C)c1O)CCC(C)(C(=O)O)O2 (centres undefined) [TROLOX] | – | – | – | – | 0% | 0% | – | 57.7% | – | – | – | – | – | – | – | – | – | Activity (SH-SY5Y [15]): 65.1%; Activity (SH-SY5Y [18]): 63.7%
CCCCCCOC(=O)[C@H](CCC(=O)NCCC1CCN(Cc2ccccc2)CC1)NC(=O)c1cccs1 | 1800 nM | 7.5% | 10.3% | 15% | 55.1% | 64.5% | 73% | 31.8% | 100% | 1000 nM | 500 nM | 3500 nM | 20.9 ×10⁻⁶ cm/s | 27.1% | 22.3% | 0% | 7% | Activity (SH-SY5Y [19]): 48.9%; Activity (SH-SY5Y [20]): 0%
CCCCCCOC(=O)[C@H](CCC(=O)NCCC1CCN(Cc2ccccc2)CC1)NC(=O)c1cc2ccsc2s1 | 350 nM | 42.2% | 33.3% | 23.3% | 54.5% | 41.6% | 46.4% | 20.3% | 100% | 700 nM | 300 nM | 3500 nM | 28.5 ×10⁻⁶ cm/s | 46.1% | 45.4% | 20.8% | 30.8% | Activity (SH-SY5Y [19]): 34.8%; Activity (SH-SY5Y [20]): 22.3%
CCCCCCOC(=O)[C@H](CCC(=O)NCCC1CCN(Cc2ccccc2)CC1)NC(=O)c1ccccc1 | 1750 nM | 24.7% | 15.9% | 37.3% | 43.9% | 68.1% | 52.4% | 67% | 100% | 1500 nM | 530 nM | 1900 nM | 18.7 ×10⁻⁶ cm/s | 47.9% | 43.8% | 20.1% | 21% | Activity (SH-SY5Y [15]): 38.5%; Activity (SH-SY5Y [18]): 15.1%
